From US20250144067A1, “PERSONALIZED STARVATION THERAPY FOR CANCER” (Faeth Therapeutics, Inc., priority 2021, published 2025)
Where a name gives a salt, the structure may show the parent alone. Read-outs that look alike come from different tables or passages of the source.

Tests used:
[1] = tested on: NCI-H292 lung cancer cells; test: FDA drug screening, complete media vs cholesterol-free media without statin (TABLE 1); assay type: cell-based, human
[2] = tested on: NCI-H292 lung cancer cells; test: FDA drug screening, complete media vs cholesterol-free media with simvastatin (TABLE 2); assay type: cell-based, human
[3] = NCI-H292 cells, cholesterol-free media without statin, FDA drug library screen
[4] = NCI-H292 cells, complete media, FDA drug library screen
[5] = complete vs cholesterol-free media, >0 enhanced anti-cancer activity, about 0 neutral, <0 antagonist
[6] = NCI-H292 cells, FDA drug library screen, cholesterol-free media with simvastatin 0.04 μM
[7] = NCI-H292 cells, FDA drug library screen, complete media
[8] = complete media vs cholesterol-free media + simvastatin (0.04 μM), >0 enhanced anti-cancer activity, about 0 neutral, <0 antagonist
[9] = NCI-H292 cells, cholesterol-free media without statin
[10] = complete vs cholesterol-free media, greater than 0 enhanced anti-cancer activity, about 0 neutral, below 0 antagonists
[11] = NCI-H292 cells, cholesterol-free media with simvastatin 0.04 μM, cell growth value in FDA drug screen
[12] = NCI-H292 cells, complete media, cell growth value in FDA drug screen
[13] = complete media minus cholesterol-free media + simvastatin, >0 enhanced anti-cancer activity, about 0 neutral, <0 antagonist
[14] = Complete minus Cholesterol-free, […]
[15] = NCI-H292 cells, FDA drug library screen, cholesterol-free media without statin
[16] = Complete minus Cholesterol-free, greater than 0 enhanced anti-cancer activity, about 0 neutral, below 0 antagonists
[17] = NCI-H292 cells in cholesterol-free media without statin
[18] = NCI-H292 cells in complete media
[19] = NCI-H292 cells, FDA library drug in cholesterol-free media with simvastatin 0.04 μM
[20] = NCI-H292 cells, FDA library drug in complete media
[21] = Complete minus Cholesterol-free, >0 enhanced anti-cancer activity, about 0 neutral, <0 antagonist
[22] = NCI-H292 cells, drug in cholesterol-free media with simvastatin 0.04 μM
[23] = NCI-H292 cells, drug in complete media
[24] = Complete minus Cholesterol-free, greater than 0 enhanced anti-cancer activity, about 0 neutral, below 0 antagonist
[25] = NCI-H292 cells, cholesterol-free media with simvastatin 0.04 μM, FDA drug library screen (TABLE 2)
[26] = NCI-H292 cells, complete media, FDA drug library screen (TABLE 2)
[27] = complete media minus cholesterol-free media + simvastatin (0.04 μM), >0 enhanced anti-cancer activity, about 0 neutral, <0 antagonist

CC(=O)Oc1cc2c(s1)CCN(C(C(=O)C1CC1)c1ccccc1F)C2 (stereo not drawn) [Prasugrel]
Cholesterol-free [1, 3]: 1.483
Complete [1, 4]: 1.769
Difference [1, 5]: 0.29
Cholesterol-free media + simvastatin (0.04 μM) [2, 6]: 1.012
Complete Media [2, 7]: 0.9091
Difference [2, 8]: −0.10

NCCCC(O)(P(=O)(O)O)P(=O)(O)O [Alendronic acid]
Cholesterol-free [1, 9]: 1.207
Complete ([1]; NCI-H292 cells, complete media): 0.7802
Difference [1, 10]: −0.43
Cholesterol-free media + simvastatin (0.04 μM) [2, 11]: 0.8926
Complete Media [2, 12]: 0.9547
Difference [2, 13]: 0.06

O=C(Nc1ccccc1)c1ccccc1O [Salicylanilide]
Difference [1, 14]: −0.19
Cholesterol-free [1, 15]: 1.231
Complete [1, 7]: 1.046
Cholesterol-free media + simvastatin (0.04 μM) ([2]; NCI-H292 cells, cholesterol-free media with simvastatin 0.04 μM, […]): 1.321
Complete Media ([2]; NCI-H292 cells, complete media, […]): 1.359
Difference ([2]; complete media minus cholesterol-free media + simvastatin, […]): 0.04

C[C@H](N[C@@H](CCc1ccccc1)C(=O)O)C(=O)N1CCC[C@H]1C(=O)O.O.O [Enalaprilat (dihydrate)]
Difference [1, 16]: −0.58
Cholesterol-free [1, 17]: 1.525
Complete [1, 18]: 0.949
Cholesterol-free media + simvastatin (0.04 μM) [2, 19]: 1.635
Complete Media [2, 20]: 1.051
Difference [2, 8]: −0.58

Clc1ccc2nsnc2c1NC1=NCCN1 [Tizanidine (hydrochloride)]
Difference [1, 21]: 0.02
Cholesterol-free [1, 3]: 1.07
Complete [1, 4]: 1.09
Cholesterol-free media + simvastatin (0.04 μM) [2, 22]: 1.174
Complete Media [2, 23]: 0.9856
Difference [2, 8]: −0.19

Nc1ccn([C@@H]2CS[C@H](CO)O2)c(=O)n1 [Lamivudine]
Difference [1, 21]: −0.22
Cholesterol-free [1, 9]: 1.216
Complete ([1]; NCI-H292 cells, complete media): 0.9947
Cholesterol-free media + simvastatin (0.04 μM) [2, 19]: 1.644
Difference [2, 8]: −0.47

COC(=O)N[C@H](C(=O)N1CC2(CC2)C[C@H]1c1nc(-c2ccc3c(c2)C(F)(F)c2cc(-c4ccc5[nH]c([C@@H]6[C@H]7CC[C@H](C7)N6C(=O)[C@@H](NC(=O)OC)C(C)C)nc5c4)ccc2-3)c[nH]1)C(C)C [Ledipasvir (acetone)]
Difference [1, 24]: −0.13
Cholesterol-free [1, 15]: 0.5672
Complete [1, 7]: 0.4332
Cholesterol-free media + simvastatin (0.04 μM) [2, 19]: 1.383
Complete Media [2, 20]: 0.9707
Difference [2, 8]: −0.41

O=C(O)CCNC(=O)c1ccccc1 [Betamipron]
Difference [1, 16]: −1.00
Cholesterol-free [1, 17]: 1.952
Complete [1, 18]: 0.9561
Cholesterol-free media + simvastatin (0.04 μM) [2, 11]: 0.7936
Complete Media [2, 12]: 0.9075
Difference [2, 13]: 0.11

COc1ccc2cc(CCC(C)=O)ccc2c1 [Nabumetone]
Difference [1, 24]: −0.18
Cholesterol-free [1, 15]: 1.034
Complete [1, 7]: 0.8533
Cholesterol-free media + simvastatin (0.04 μM) [2, 19]: 1.525
Complete Media [2, 20]: 1.112
Difference [2, 8]: −0.41

O=C(OCC(O)CO)c1ccccc1Nc1ccnc2cc(Cl)ccc12 (stereo not drawn) [Glafenine]
Cholesterol-free [1]: 1.288
Difference [1]: −0.12
Cholesterol-free media + simvastatin (0.04 μM) [2]: 0.9477
Complete Media [2]: 1.068
Difference [2]: 0.12

Pyrantel (tartrate)
Difference [1, 24]: −0.17
Complete [1, 7]: 0.9815
Cholesterol-free media + simvastatin (0.04 μM) [2, 19]: 1.712
Complete Media [2, 20]: 1.209
Difference [2, 8]: −0.50

OB1OCc2cc(F)ccc21 [Tavaborole]
Difference [1, 21]: −0.04
Cholesterol-free [1, 3]: 1.018
Complete [1, 4]: 0.9789
Cholesterol-free media + simvastatin (0.04 μM) [2, 25]: 1.181
Complete Media [2, 26]: 1.117
Difference [2, 27]: −0.06

O=c1ccn([C@@H]2O[C@H](CO)[C@@H](O)[C@H]2O)c(=O)[nH]1 [Uridine]
Difference [1, 21]: −0.19
Cholesterol-free [1, 9]: 1.404
Complete ([1]; NCI-H292 cells, complete media): 1.215
Cholesterol-free media + simvastatin (0.04 μM) [2, 19]: 1.294
Complete Media [2, 20]: 1.006
Difference [2, 8]: −0.29

CCOCCn1c(N2CCCN(C)CC2)nc2ccccc21 [Emedastine]
Difference [1, 21]: −0.27
Cholesterol-free [1, 9]: 0.9896
Complete ([1]; NCI-H292 cells, complete media): 0.7182
Cholesterol-free media + simvastatin (0.04 μM) [2, 11]: 0.8891
Complete Media [2, 12]: 0.9093
Difference [2, 13]: 0.02

Polymyxin B (Sulfate)
Difference [1, 14]: −0.03
Cholesterol-free [1, 3]: 0.9793
Complete [1, 4]: 0.9463
Cholesterol-free media + simvastatin (0.04 μM) [2, 22]: 1.169
Complete Media [2, 23]: 0.9427
Difference ([2]; complete media vs cholesterol-free media + simvastatin (0.04 μM), […]): −0.23

CC(=O)N[C@@H](Cc1ccc(O)cc1)C(=O)O [N-Acetyl-L-tyrosine]
Difference [1, 24]: −0.16
Cholesterol-free [1, 15]: 1.221
Complete [1, 7]: 1.059
Cholesterol-free media + simvastatin (0.04 μM) [2, 6]: 1.348
Complete Media [2, 7]: 1.218
Difference [2, 8]: −0.13

CN1[C@H]2C[C@H](OC(=O)[C@H](CO)c3ccccc3)C[C@@H]1[C@@H](O)C2 (racemic) [Racanisodamine]
Difference [1, 14]: −0.15
Cholesterol-free [1, 15]: 1.184
Complete [1, 7]: 1.034
Cholesterol-free media + simvastatin (0.04 μM) [2, 25]: 0.9483
Complete Media [2, 26]: 0.9207
Difference ([2]; complete media minus cholesterol-free media + simvastatin (0.04 μM), […]): −0.03

CN(Cc1cnc2nc(N)nc(N)c2n1)c1ccc(C(=O)N[C@@H](CCC(=O)O)C(=O)O)cc1 [Methotrexate]
Difference [1, 24]: −0.13
Cholesterol-free [1, 15]: 0.225
Complete [1, 7]: 0.09944
Cholesterol-free media + simvastatin (0.04 μM) [2, 25]: 0.1275
Complete Media [2, 26]: 0.1078
Difference [2, 27]: −0.02

COc1ccccc1N1CCN(CCCNc2cc(=O)n(C)c(=O)n2C)CC1 [Urapidil (hydrochloride)]
Difference [1, 21]: −0.28
Cholesterol-free [1, 9]: 1.01
Complete ([1]; NCI-H292 cells, complete media): 0.7335
Cholesterol-free media + simvastatin (0.04 μM) [2, 19]: 1.22
Complete Media [2, 20]: 0.87
Difference [2, 8]: −0.35

O=C1O[C@H](CO)[C@@H](O)[C@H](O)[C@H]1O [D-(+)-Glucono-1,5-lactone]
Cholesterol-free [1, 9]: 1.227
Complete ([1]; NCI-H292 cells, complete media): 0.906
Difference [1, 10]: −0.32
Cholesterol-free media + simvastatin (0.04 μM) [2, 6]: 1.196
Complete Media [2, 7]: 1.644
Difference [2, 13]: 0.45

CC(C)C(=O)c1c(C(C)C)nn2ccccc12 [Ibudilast]
Difference [1, 21]: 0.04
Cholesterol-free [1, 3]: 1.126
Complete [1, 4]: 1.165
Cholesterol-free media + simvastatin (0.04 μM) [2, 11]: 1.245
Complete Media [2, 12]: 1.273
Difference [2, 13]: 0.03

C[C@H](Cn1cnc2c(N)ncnc21)OCP(=O)(O)O.O [Tenofovir (hydrate)]
Cholesterol-free [1, 3]: 0.8777
Complete [1, 4]: 1.281
Difference [1, 5]: 0.40
Cholesterol-free media + simvastatin (0.04 μM) [2, 6]: 1.824
Complete Media [2, 7]: 2.099
Difference [2, 13]: 0.27

CCCc1cc(C(N)=S)ccn1 [Prothionamide]
Difference [1, 16]: −0.62
Cholesterol-free [1, 17]: 1.391
Complete [1, 18]: 0.7758
Cholesterol-free media + simvastatin (0.04 μM) [2, 11]: 1.039
Complete Media [2, 12]: 1.099
Difference [2, 13]: 0.06
